Assay: method code SF-AS, from DOI: 10.1002/recl.19891080306

Row | SMILES | logP
1 | c1ccc2c(c1)OCCOCCOCCOCCOCCOCCOCCOc1ccccc1OCCOCCOCCOCCOCCOCCOCCO2 | 0.52
2 | COCCOCCOc1cccc(OCCOCCOC)c1 | 0.86
3 | COCCOCCOc1ccccc1OCCOCCOC | 0.76
4 | COCCOCCOc1ccc(OCCOCCOC)cc1 | 0.76
5 | COCCOCCOCCOc1ccccc1OCCOCCOCCOC | 0.38
6 | c1ccc2c(c1)OCCOCCOCCOCCOCCOCCOc1ccccc1OCCOCCOCCO2 | 1.45
7 | c1ccc2c(c1)OCCOCCOCCOCCOc1ccccc1OCCOCCOCCOCCO2 | 1.8
8 | c1ccc2c(c1)OCCOCCOCCOCCOCCOCCOCCOc1ccccc1OCCO2 | 1.82

More lines, now with the values ahead:

Row | logP | SMILES
9 | 0.45 | c1ccc2c(c1)OCCOCCOCCOCCOCCOCCOCCO2
10 | 0.23 | c1ccc2c(c1)OCCOCCOCCOCCOCCOCCOCCOCCO2
11 | 0.57 | c1ccc2c(c1)OCCOCCOCCOCCOCCOCCO2
12 | 0.91 | c1ccc2c(c1)OCCOCCOCCOCCO2
13 | 2.11 | c1ccc2c(c1)OCCOCCOCCOc1ccccc1OCCOCCOCCO2
14 | 0.03 | c1ccc2c(c1)OCCOCCOCCOCCOCCOCCOCCOCCOCCO2
15 | 2.2 | c1ccc2c(c1)OCCOCCOc1ccccc1OCCOCCO2
16 | 0.58 | c1ccc2c(c1)OCCOCCOCCOCCOCCO2
17 | 1.63 | c1ccc2c(c1)OCCOCCOCCOCCOCCOCCOc1ccccc1OCCO2
18 | -0.09 | c1ccc2c(c1)OCCOCCOCCOCCOCCOCCOCCOCCOCCOCCO2

From the SangsterLogP compilation
